Measured values: patent publication EP1808169B1, “Polyhydroxylated aromatic compounds for the treatment of amyloidosis and alpha-synuclein fibril diseases” (priority 1999, dated 2001)

Tests used:
Assay type in all cases: biochemical
human amylin [1] = target: T1, human amylin (Homo sapiens, UniProt P10997); assay: Congo red staining of amylin fibrils on gelatin-coated slides (polarized light); settings: result in words; amylin + compound after overnight incubation, compared with amylin alone
T1 construct: This amyloid protein involved consists of a 37 amino acid protein known as islet amyloid polypeptide or amylin; purchased Bachem
T1 sequence (P10997 34-70 limits assumed): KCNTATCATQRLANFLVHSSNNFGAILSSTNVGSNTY
Protocol: Following Thioflavin T fluorometry readings as described in Example 1, 5µl aliquots of amylin only, amylin + myricetin, amylin + exifone, and amylin + tannic acid were also taken, allowed to air dry overnight on gelatin-coated slides, and stained with Congo red as previously described (Castillo et al., Diabetes 47:612-620, 1998).

Aβ 1-40 amyloid fibrils [2] = assay: Modified Congo red-Aβ spectrophotometric assay: dose-dependent disaggregation of fibrillized Aβ 1-40 (overnight incubation); settings: overnight (~18 hours) at 37°C
Protocol: (§1) In this study, a Congo red-Aβ spectrophotometric assay (Klunk et al., Anal. Biochem. 266:66-76, 1999) was modified to determine the effectiveness of polyhydroxylated aromatic compounds on the disaggregation of pre-formed Aβ 1-40 amyloid fibrils. For this assay, 1 mg of Aβ 1-40 (Bachem) was incubated for 4 days in distilled water at 37°C to spontaneously produce amyloid fibrils. 25pM of fibrillized Aβ 1-40 was then incubated in triplicate with various test compounds for 3 days at 37°C in Tris-buffered saline (TBS)(100 mM Tris; 50 mM NaCl; pH 7.0, with 0.02% sodium azide), at an Aβ:compound weight ratio of 2:1. Following incubation, 50µl of 360 µM Congo red (Sigma) in distilled water was then added to 250 µl of each incubation mixture, giving a final Aβ:Congo red molar ratio of 1:3. After 10 minutes, the absorbance at 405 nm (reference wavelength to account for the absorbance of Congo red alone at 540 nm) and 540 nm (sample absorbance where "sample" refers to Aβ alone, test compound alone, or Aβ plus test compound, all in the presence of Congo red) was determined using a Biorad Model 550 BLISA Plate Reader (Biorad, Hercules, CA, USA). The absorbance at wavelength 405 nm was automatically subtracted by the ELISA plate reader from the absorbance at wavelength 540 nm (difference is referred to as Δ absorbance)(see Klunk et al. cited above). Therefore, the Δ absorbance reading at 540 nm was proportional to the amount of aggregated Aβ left in solution (Klunk et al.).
(§2) For all experiments involving test compounds, the Δ absorbance reading at 540 nm of the test compound alone (in the absence of Aβ), was always subtracted from the corresponding Δ absorbance reading at 540 nm of the test compound in the presence of Aβ. Using this modification of the method of Klunk et al., the use of a greater final concentration of Congo red, i.e. 60µM instead of 14µM, in the presence of fibrillar Aβ gave an overall absorbance at 540 nm that was always below 1.0 Absorbance Unit (AU), and well within the linear absorbance range.
In this study, the potential dose-dependent effects of tannic acid and gallic acid on the disaggregation of fibrillized Aβ 1-40 was assessed. In this experiment, the modified Congo red-Aβ spectrophotometric assay (Klunk et al, Anal. Biochem. 266:66-76, 1999) was used as described above (i.e. Example 4). However, in this specific experiment increasing amounts of tannic acid or gallic acid (i.e. 25µg/ml, 50µg/ml, 75µg/ml and 100µg/ml) were tested following an overnight (~18 hours) incubation at 37°C in the presence of 25pM of Aβ 1.40 (Bachem).

human amylin [3] = target: T1, human amylin; assay: Thioflavin T fluorometry: disassembly/disruption of islet amyloid (amylin) fibrils; settings: 25 µM human amylin, 100µg/ml compound, amylin:compound weight ratio 1:1, overnight (~18 hours) at 37°C, pH 7.0; read-out: Fluorescence inhibition, %
Aβ 1-40 amyloid fibrils [4] = assay: Modified Congo red-Aβ spectrophotometric assay: disaggregation of pre-formed Aβ 1-40 fibrils (3 days incubation); settings: Aβ:compound weight ratio 2:1; fibrillized Aβ 1-40 incubated with compound 3 days at 37°C in TBS pH 7.0; Δ absorbance at 540 nm; triplicate
Protocol: as §1, §2
The following polyhydroxylated aromatic containing compounds were tested using the above described Congo red-Aβ spectrophotometric assay to determine their effectiveness on disaggregation of pre-formed Aβ 1-40 amyloid fibrils: 1) gallic acid, 2) ethyl gallate, 3) quinic acid, 4) gallamide trihydrate, 5) ellagic acid, 6) propyl gallate, and 7) pyrogallol.

[5] = w/w ratio 2:1 (50µg/ml compound)
[6] = w/w ratio 4:1 (25µg/ml compound)
[7] = w/w ratio 4:3 (75µg/ml compound)

| Compound | Congo red staining (human amylin [1]) | Decrease in absorbance, %, at the Aβ 1-40:compound w/w ratios given (Aβ 1-40 amyloid fibrils [2]; w/w ratio 1:1 (100µg/ml compound)) | Decrease in absorbance, %, at the Aβ 1-40:compound w/w ratios given (Aβ 1-40 amyloid fibrils [2]; [5]) | Decrease in absorbance, %, at the Aβ 1-40:compound w/w ratios given (Aβ 1-40 amyloid fibrils [2]; [6]) | Decrease in absorbance, %, at the Aβ 1-40:compound w/w ratios given (Aβ 1-40 amyloid fibrils [2]; [7]) | inhibition at 100 µg/mL (human amylin [3]) | Decrease in absorbance, % (Aβ 1-40 amyloid fibrils [4]) |
| --- | --- | --- | --- | --- | --- | --- | --- |
| O=C(OC[C@H]1O[C@@H](OC(=O)c2cc(O)c(O)c(OC(=O)c3cc(O)c(O)c(O)c3)c2)[C@H](OC(=O)c2cc(O)c(O)c(OC(=O)c3cc(O)c(O)c(O)c3)c2)[C@@H](OC(=O)c2cc(O)c(O)c(OC(=O)c3cc(O)c(O)c(O)c3)c2)[C@@H]1OC(=O)c1cc(O)c(O)c(OC(=O)c2cc(O)c(O)c(O)c2)c1)c1cc(O)c(O)c(OC(=O)c2cc(O)c(O)c(O)c2)c1 [Tannic acid, tannic acid] | marked decrease in Congo red staining | 61 ± 11.1% | 48 ± 6.8% | 42 ± 5.2% | 59 ± 6.4% | 83.8 ± 1.4% | – |
| O=C(O)c1cc(O)c(O)c(O)c1 [Gallic acid, gallic acid] | – | – | 22 ± 4.0% | 17 ± 9.5% | 30 ± 6.0% | – | 52 ± 0.4% |
